We go through 38 compounds from the CombiSolv-Exp solvation set (Vermeire and Green 2021).

The data set is described as follows: solvent given as SMILES.
Setting [1] is: in CCCCCCCCC=CCCCCCCCC(=O)OCC(COC(=O)CCCCCCCC=CCCCCCCCC)OC(=O)CCCCCCCC=CCCCCCCCC

As for `ClCCl`, the “solvation free energy, 298 K” value reads like this: (in C1CCOC1) -4.27 kcal/mol; (in C1COCCO1) -4.09 kcal/mol; (in C=CCCCCCCCCCCCCCC) -2.77 kcal/mol; (in CC#N) -3.99 kcal/mol; (in CC(=O)N(C)C) -4.34 kcal/mol; (in CC(C)=O) -4.13 kcal/mol. For the same compound, the “solvation free energy, 298 K” value is, setting by setting: (in CC(C)CC(C)(C)C) -2.84 kcal/mol; (in CC(C)O) -3.26 kcal/mol; (in CCC(C)=O) -4.05 kcal/mol; (in CCCCC) -3.09 kcal/mol; (in CCCCCCC) -2.91 kcal/mol; (in CCCCCCCC) -2.86 kcal/mol. Also, the “solvation free energy, 298 K” value is -3.37 kcal/mol under setting [1]; -2.67 kcal/mol (in CCCCCCCCCCCCCC); -2.72 kcal/mol (in CCCCCCCCCCCCCCCC); -2.91 kcal/mol (in CCCCCCCCCCCCO); -2.82 kcal/mol (in CCCCCCCCN(CCCCCCCC)CCCCCCCC); -3.08 kcal/mol (in CCCCCCCCO). In addition, the “solvation free energy, 298 K” value was -2.99 kcal/mol (in CCCCCN(CCCCC)CCCCC); -3.19 kcal/mol (in CCCCCO); -3.55 kcal/mol (in CCCCCl); -3.92 kcal/mol (in CCCCN(C=O)CCCC); -2.87 kcal/mol (in CCCCN(CCCC)CCCC); -3.29 kcal/mol (in CCCCO). Moreover, the “solvation free energy, 298 K” value (in CCCCOC) is -3.78 kcal/mol; the “solvation free energy, 298 K” value (in CCCCOCCCC) is -3.21 kcal/mol; the “solvation free energy, 298 K” value (in CCCOCCC) is -3.51 kcal/mol; the “solvation free energy, 298 K” value (in CCN1CCCC1=O) is -4.29 kcal/mol; the “solvation free energy, 298 K” value (in CCN(CC)C(C)=O) is -4.28 kcal/mol; the “solvation free energy, 298 K” value (in CCNC(C)=O) was -3.72 kcal/mol. The “solvation free energy, 298 K” value (in CCNC=O) is -3.7 kcal/mol; the “solvation free energy, 298 K” value (in CCO) is -3.36 kcal/mol; the “solvation free energy, 298 K” value (in CCOC(=O)c1ccccc1C(=O)OCC) is -3.51 kcal/mol; the “solvation free energy, 298 K” value (in CCOC(C)=O) is -4.04 kcal/mol; the “solvation free energy, 298 K” value (in CCOCC) was -3.87 kcal/mol; the “solvation free energy, 298 K” value (in CN1CCCC1=O) is -4.23 kcal/mol. Also, the “solvation free energy, 298 K” value is, setting by setting: (in CN1CCCCC1=O) -4.45 kcal/mol; (in CNC(C)=O) -3.74 kcal/mol; (in CO) -3.49 kcal/mol; (in COC(C)=O) -4.03 kcal/mol; (in CS(C)=O) -4.13 kcal/mol; (in Cc1ccc(C)cc1) -3.55 kcal/mol. For the same compound, the “solvation free energy, 298 K” value reads like this: (in Cc1cccc(C)c1) -3.58 kcal/mol; (in Cc1ccccc1C) -3.58 kcal/mol; (in ClC(Cl)(Cl)Cl) -3.36 kcal/mol; (in ClC(Cl)Cl) -3.62 kcal/mol; (in ClCCCl) -3.72 kcal/mol; (in Clc1ccccc1) -3.53 kcal/mol. Moreover, the “solvation free energy, 298 K” value reads like this: (in N#Cc1ccccc1) -3.78 kcal/mol; (in NC=O) -2.66 kcal/mol; (in O) -1.32 kcal/mol; (in O=C1CCCCC1) -4.13 kcal/mol; (in [2H]O[2H]) -1.5 kcal/mol.
`CCCOC(=O)CCC`: the “solvation free energy, 298 K” value (in O) was -2.28 kcal/mol.
Same read-out and setting: the figure for `CC1=CCC2CC1C2(C)C` (centres undefined) is 0.97 kcal/mol; for `N#Cc1ccncc1` it is -6.02 kcal/mol; for `C=C(C)C1CCC2(C)CCCC(=C)C2C1` (centres undefined) it is -0.05 kcal/mol.
Consider `CCCCCCCCCCCCCCCCCCO`, for which the “solvation free energy, 298 K” value was -14.9 kcal/mol (in CC(C)O); -13.8 kcal/mol (in CCC(C)=O); -12.4 kcal/mol under setting [1]; -14.9 kcal/mol (in CCCCCCCCCCO); -14.9 kcal/mol (in CCCCCCCCO); -14.9 kcal/mol (in CCCCCCO). Besides, the “solvation free energy, 298 K” value (in CCCCOCCCC) is -14.5 kcal/mol; the “solvation free energy, 298 K” value (in CCOCC) is -15 kcal/mol; the “solvation free energy, 298 K” value (in O) is -2.43 kcal/mol.
In the case of `CC(C)CCCCCCOC(=O)c1ccccc1C(=O)OCCCCCCC(C)C`, under “in O”, the “solvation free energy, 298 K” value is -6.14 kcal/mol.
For the compound `Oc1ccc(O)cc1`, the “solvation free energy, 298 K” value is -6.25 kcal/mol (in CCCCCC); -6.58 kcal/mol (in CCCCCCCC); -12.2 kcal/mol (in CCCCOC(C)=O); -12.3 kcal/mol (in CCOC(C)=O); -8.81 kcal/mol (in Cc1ccc(C)cc1); -8.88 kcal/mol (in Cc1cccc(C)c1). For the same compound, the “solvation free energy, 298 K” value reads like this: (in Cc1ccccc1C) -8.88 kcal/mol; (in O) -12.1 kcal/mol.
`O=c1[nH]c(=O)[nH]c(=O)[nH]1`: for the setting “in O”, the “solvation free energy, 298 K” value is -18.1 kcal/mol.
Same read-out and setting: in the case of `CCCCN(CC)c1c([N+](=O)[O-])cc(C(F)(F)F)cc1[N+](=O)[O-]` it was -3.51 kcal/mol.
Take `Clc1ccc(-c2cc(Cl)c(Cl)c(Cl)c2Cl)cc1`: the “solvation free energy, 298 K” value (in CCCCCCCCO) was -12.8 kcal/mol.
Turning to `COC(=O)c1cc(OC)c(O)c(-c2cc(C(=O)OC)cc(OC)c2O)c1`, the “solvation free energy, 298 K” value was -20.8 kcal/mol (in CCC(C)=O), -20.8 kcal/mol (in CCCO), -21.7 kcal/mol (in ClC=CCl) and -17.3 kcal/mol (in O).
With `CCCS`, the “solvation free energy, 298 K” value reads like this: (in CC(C)CC(C)(C)C) -3.78 kcal/mol; (in O) -0.99 kcal/mol.
For the compound `C=C(C)C1CC=C(C=O)CC1` (centres undefined), the “solvation free energy, 298 K” value (in O) was -4.09 kcal/mol.
On to `O=C(O)CCCCC(=O)O`, for which the “solvation free energy, 298 K” value is, setting by setting: (in CC(C)(C)O) -13.7 kcal/mol; (in CC(C)=O) -13.1 kcal/mol; (in CC(C)O) -13.5 kcal/mol; (in CCCCO) -13.2 kcal/mol; (in CCCO) -13.7 kcal/mol; (in CCO) -13.7 kcal/mol. The “solvation free energy, 298 K” value was -14 kcal/mol (in CO), -12.9 kcal/mol (in O) and -12.9 kcal/mol (in O=C1CCCCC1).
Take `C=CC(C)(O)CCC=C(C)C` (centres undefined): the “solvation free energy, 298 K” value (in O) is -4.17 kcal/mol.
For `CCCCC(C)C`, the “solvation free energy, 298 K” value is, setting by setting: (in C=CCCCCCCCCCCCCCC) -3.96 kcal/mol; (in CC#N) -2.99 kcal/mol; (in O) 2.93 kcal/mol.
Consider `COc1ccc(C(=O)N(O)c2cccc(Cl)c2)cc1`, for which, for the setting “in O”, the “solvation free energy, 298 K” value was -12.8 kcal/mol.
On the same count and under the same terms, in the case of `C=CC(C)(C)O` it was -4.19 kcal/mol.
As for `Cc1cccc(C)n1`, the “solvation free energy, 298 K” value runs as follows: (in CC(C)CC(C)(C)C) -5.29 kcal/mol; (in O) -4.59 kcal/mol.
As for `O=C1c2ccccc2C(=O)c2c(NCCO)cccc21`, the “solvation free energy, 298 K” value (in O) is -14.2 kcal/mol.
Regarding `Cc1ccc(C2(C)CCCC2(C)C)cc1` (centres undefined), the “solvation free energy, 298 K” value (in O) is -0.61 kcal/mol.
For the compound `O=NN1CCOCC1`, for the setting “in O”, the “solvation free energy, 298 K” value is -7.78 kcal/mol.
In the case of `O=[N+]([O-])c1cccc(O)c1`, the “solvation free energy, 298 K” value reads like this: (in CCCCCC) -7.79 kcal/mol; (in CCCCCCC) -7.72 kcal/mol; (in CCCCCCCC) -7.83 kcal/mol; (in CCCCCCCCCC) -7.74 kcal/mol; (in O) -9.63 kcal/mol.
`COc1cc(C(C)=O)cc(-c2cc(C(C)=O)cc(OC)c2O)c1O`: the “solvation free energy, 298 K” value (in CCC(C)=O) is -21.7 kcal/mol; the “solvation free energy, 298 K” value (in CCCO) is -21.1 kcal/mol; the “solvation free energy, 298 K” value (in Cc1ccccc1) was -20.8 kcal/mol; the “solvation free energy, 298 K” value (in ClC=CCl) is -22 kcal/mol; the “solvation free energy, 298 K” value (in O) was -19.2 kcal/mol.
With `CCCCCCCCC(C)=O`, the “solvation free energy, 298 K” value (in O) was -2.34 kcal/mol.
Take `CN(C)c1ccc(C(=O)O)cc1`: the “solvation free energy, 298 K” value is, setting by setting: (in CN(C)C=O) -13.8 kcal/mol; (in O) -9.28 kcal/mol.
For the compound `c1ccc2c(c1)Nc1ccccc1S2`, the “solvation free energy, 298 K” value runs as follows: (in C1CCOC1) -14.7 kcal/mol; (in C1COCCO1) -14.4 kcal/mol; (in CC(C)(C)O) -12.7 kcal/mol; (in CC(C)CC(C)(C)C) -10.9 kcal/mol; (in CC(C)CC(C)O) -12.6 kcal/mol; (in CC(C)CCO) -12.8 kcal/mol. The “solvation free energy, 298 K” value is -12.6 kcal/mol (in CC(C)CO); -12.8 kcal/mol (in CC(C)O); -12.8 kcal/mol (in CC(C)OC(C)C); -12.7 kcal/mol (in CCC(C)CO); -12.8 kcal/mol (in CCC(C)O); -12.8 kcal/mol (in CCCC(C)CO). Further, the “solvation free energy, 298 K” value by setting is: (in CCCC(C)O) -12.8 kcal/mol; (in CCCCC(CC)CO) -12.7 kcal/mol; (in CCCCCC) -11.1 kcal/mol; (in CCCCCCC) -11.2 kcal/mol; (in CCCCCCCC) -11.2 kcal/mol; (in CCCCCCCCCC) -11.2 kcal/mol. Also, the “solvation free energy, 298 K” value is -13 kcal/mol (in CCCCCCCCCCO); -13.1 kcal/mol (in CCCCCCCCO); -13.1 kcal/mol (in CCCCCCCO); -13.1 kcal/mol (in CCCCCCO); -13.1 kcal/mol (in CCCCCO); -13.1 kcal/mol (in CCCCO). Also, the “solvation free energy, 298 K” value is, setting by setting: (in CCCCOCCCC) -12.7 kcal/mol; (in CCCO) -13.1 kcal/mol; (in CCCOC(C)=O) -13.9 kcal/mol; (in CCO) -13.2 kcal/mol; (in CCOCC) -13.5 kcal/mol; (in CO) -13.1 kcal/mol. The “solvation free energy, 298 K” value (in COC(C)(C)C) is -13.4 kcal/mol.
`Clc1cc(Cl)c2c(c1Cl)Oc1ccccc1O2`: where the note is “in O”, the “solvation free energy, 298 K” value was -4.05 kcal/mol.
For the compound `CC(C)C=O`, the “solvation free energy, 298 K” value runs as follows: (in CC(=O)N(C)C) -4.04 kcal/mol; (in CCCCN(C=O)CCCC) -3.78 kcal/mol; (in CCOC(C)=O) -4.05 kcal/mol; (in CN1CCCC1=O) -3.79 kcal/mol; (in CN1CCCCC1=O) -3.92 kcal/mol; (in CN(C)C=O) -4.09 kcal/mol. Also, the “solvation free energy, 298 K” value is, setting by setting: (in CNC(C)=O) -3.68 kcal/mol; (in O) -2.86 kcal/mol; (in O=CN1CCOCC1) -3.63 kcal/mol.
Regarding `CC1=C(C)C2CCC1C2`, the “solvation free energy, 298 K” value (in O) was 0.53 kcal/mol.
The same measure, in the same setting: in the case of `COC(F)(F)C(Cl)Cl` it was -1.12 kcal/mol.
With `CC(C)(C)c1ccccc1`, the “solvation free energy, 298 K” value by setting is: (in C1CCOC1) -6.93 kcal/mol; (in CC#N) -5.86 kcal/mol; (in CC(C)O) -5.63 kcal/mol; (in CO) -5.52 kcal/mol; (in O) -0.42 kcal/mol.
Regarding `COC(=O)c1ccc(N)cc1`, the “solvation free energy, 298 K” value (in CCCO) was -11.1 kcal/mol.
Regarding `CC(=O)CCCC(C)C`, the “solvation free energy, 298 K” value was -4.76 kcal/mol (in NC=O) and -3 kcal/mol (in O).
For `O=S1OCC2C(CO1)C1(Cl)C(Cl)=C(Cl)C2(Cl)C1(Cl)Cl` (centres undefined), under “in CCCCCCCCO”, the “solvation free energy, 298 K” value was -13 kcal/mol.
On to `CC12CCC(=O)C=C1CCC1C2C(O)CC2(C)C1CCC2(O)C(=O)C(O)C(CCCCC(N)=O)C(N)=O` (centres undefined), for which the “solvation free energy, 298 K” value is -29.8 kcal/mol (in C=CCCCCCCC=C), -27.4 kcal/mol (in C=CCCCCCCCCCCCCCC) and -33.7 kcal/mol (in O).
As for `O=C(c1ccccc1)N(O)c1cccc(Cl)c1`, for the setting “in O”, the “solvation free energy, 298 K” value was -10.9 kcal/mol.
